Columns and labels:
[1] = system: POROL (Portulaca oleracea, portulaca); assay: Post-emergence herbicidal activity of mixtures in forage crops, greenhouse (Example IV); type: in vivo, Portulaca oleracea L.; conditions: Table 58 (forage), foliar-applied, after approximately 21 days
Experimental: (§1) Seeds or root cuttings of the desired test plant species were planted in Sun Gro MetroMix® 306 planting mixture, which typically has a pH of 6.0 to 6.8 and an organic matter content of about 30 percent, in plastic pots with a surface area of 126.6 square centimeters (cm^2). When required to ensure good germination and healthy plants, a fungicide treatment and/or other chemical or physical treatment was applied. The plants were grown for 14-60 days in a greenhouse with an approximate 14 hour photoperiod which was maintained at approximately 28° C. during the day and 24° C. during the night. Nutrients and water were added on a regular basis and supplemental lighting was provided with overhead metal halide 1000-Watt lamps as necessary. The plants were employed for testing when they reached the BBCH13 to BBCH23 leaf stage.
(§2) Treatments consisted of the benzyl ester of 4-amino-3-chloro-5-fluoro-6-(4-chloro-2-fluoro-3-methoxy-phenyl)pyridine-2-carboxylic acid (Compound A), formulated as a SC, and a second herbicide alone and in combination.
(§3) A measured aliquot of Compound A was placed in 25 milliliter (mL) glass vial and diluted in a volume of 1.25% (v/v) Agri-dex crop oil concentrated to obtain stock solutions. Compound requirements are based upon a 12 mL application volume at a rate of 187 liters per hectare (L/ha). Spray solutions of the second cereal herbicide and experimental compound mixtures were prepared by adding the stock solutions to the appropriate amount of dilution solution to form 12 mL spray solution with active ingredients in two- and three-way combinations. […]
(§4) The treated plants and control plants were placed in a greenhouse as described above and watered by sub-irrigation to prevent wash-off of the test compounds. After approximately 21 days, the condition of the test plants, as compared with that of the control plants, was determined visually and scored on a scale of 0 to 100 percent where 0 corresponds to no injury and 100 corresponds to complete kill. […]

[2] = system: FIMMI (Fimbristylis miliacea, globe fringerush); assay: In-water applied weed control, transplanted paddy rice, greenhouse (Example II); type: in vivo, Fimbristylis miliacea (L.) Vahl
Experimental: Weed seeds or nutlets of the desired test plant species were planted in puddled soil (mud) prepared by mixing a shredded, non-sterilized mineral soil (50.5 percent silt, 25.5 percent clay, and 24 percent sand, with a pH of about 7.6 and an organic matter content of about 2.9 percent) and water at a 1:1 volumetric ratio. The prepared mud was dispensed in 365 mL aliquots into 16-ounce (oz.) non-perforated plastic pots with a surface area of 86.59 square centimeters (cm^2) leaving a headspace of 3 centimeters (cm) in each pot. Rice seeds were planted in Sun Gro MetroMix® 306 planting mixture, which typically has a pH of 6.0 to 6.8 and an organic matter content of about 30 percent, in plastic plug trays. Seedlings at the second or third leaf stage of growth were transplanted into 860 mL of mud contained in 32-oz. non-perforated plastic pots with a surface area of 86.59 cm^2 4 days prior to herbicide application. The paddy was created by filling the headspace of the pots with 2.5 to 3 cm of water. When required to ensure good germination and healthy plants, a fungicide treatment and/or other chemical or physical treatment was applied. The plants were grown for 4-22 days in a greenhouse with an approximate 14 h photoperiod which was maintained at about 29′C during the day and 26° C. during the night. Nutrients were added as Osmocote® (19:6:12, N:P:K+minor nutrients) at 2 g per 16-oz. pot and 4 g per 32-oz. pot. Water was added on a regular basis to maintain the paddy flood, and supplemental lighting was provided with overhead metal halide 1000-Watt lamps as necessary. The plants were employed for testing when they reached the first through fourth true leaf stage.
Treatments consisted of the acid or esters of 4-amino-3-chloro-5-fluoro-6-(4-chloro-2-fluoro-3-methoxy-phenyl)pyridine-2-carboxylic acid (compound A) each formulated as an SC and various herbicidal components alone and in combination. Forms of compound A were applied on an acid equivalent basis.
Other herbicidal components were applied on an active ingredient basis and included acetolactate synthase (ALS)-inhibiting herbicides (sulfonylurea chemical class), azimsulfuron formulated as Gulliver®, bensulfuron-methyl formulated as Londax® 60DF, cyclosulfamuron (technical grade materail), ethoxysulfuron formulated as Sunrice® 15 WDG, flucetosulfuron formulated as Sukedachi® 1KG G, imazosulfuron formulated as Brazzos®, metsulfuron-methyl formulated as Lorate®, nicosulfuron formulated as Accent®, orthosulfamuron formulated as Strada® WG, propyrisulfuron formulated as Zeta One®, and rimsulfuron formulated as Matrix® WG.
Treatment requirements for each compound or herbicidal component were calculated based upon the rates being tested, the concentration of active ingredient or acid equivalent in the formulation, an application volume of 2 mL per component per pot, and an application area of 86.59 cm^2 per pot.
For formulated compounds, a measured amount was placed in an individual 100 or 200 mL glass vial and was dissolved in a volume of 1.25% (v/v) Agri-Dex® crop oil concentrate to obtain application solutions.
For technical grade compounds, a weighed amount was placed in an individual 100 to 200 mL glass vial and was dissolved in a volume of acetone to obtain concentrated stock solutions. […] The concentrated stock solutions obtained were diluted with an equivalent volume of an aqueous mixture containing 2.5% (v/v) crop oil concentrate so that the final application solutions contained 1.25% (v/v) crop oil concentrate.
Applications were made by injecting with a pipetter appropriate amounts of the application solutions, individually and sequentially, into the aqueous layer of the paddy. Control plants were treated in the same manner with the solvent blank. Applications were made so that all treated plant material received the same concentrations of acetone and crop oil concentrate. […]

[3] = system: CASOB (Cassia obtusifolia, sicklepod); assay: Post-emergence herbicidal activity of mixtures in forage crops, greenhouse (Example IV); type: in vivo, Cassia obtusifolia L.; conditions: Table 58 (forage), foliar-applied, after approximately 21 days
Experimental: as §1, §2, §3, §4

COc1c(Cl)ccc(-c2nc(C(=O)OCc3ccccc3)c(Cl)c(N)c2F)c1F [Compound A Benzyl Ester]
Weed Control POROL Obs ([1]; 2.2 gai/ha alone): 47%
Weed Control POROL Obs ([1]; 4.4 gai/ha alone): 60%
Visual Weed Control (%) - 21 DAA FIMMI Obs ([2]; Table 48, 8 gae/ha alone): 15%
Visual Weed Control (%) - 21 DAA FIMMI Obs ([2]; Table 48, 16 gae/ha alone): 65%
Visual Weed Control (%) - 21 DAA FIMMI Obs ([2]; Table 48, 32 gae/ha alone): 75%
Weed Control CASOB Obs ([3]; 2.2 gai/ha alone): 33%
Weed Control CASOB Obs ([3]; 4.4 gai/ha alone): 38%

From US8871681B2, “Herbicidal compositions comprising 4-amino-3-chloro-5-fluoro-6-(4-chloro-2-fluoro-3-methoxyphenyl) pyridine-2-carboxylic acid or a derivative thereof and certain sulfonylureas” (Dow AgroSciences LLC, priority 2012, dated 2014)
